Holding throughout (assay): DTP human tumour cell line panel, 48 h
Assay [1] concerns HT29 colon.
Assay [2] concerns NCI-H460 lung.
Assay [3] deals with NCI/ADR-RES ovarian.
The test system of assay [4] is OVCAR-4 ovarian.
Assay [5] relates to PC-3 prostate.
The test system of assay [6] is SN12C renal.
Assay [7] deals with SNB-19 CNS.
The subject of assay [8] is TK-10 renal.
Assay [9] deals with U251 CNS.
Assay [10] concerns UACC-257 melanoma.

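How tested: cells in 96-well plates exposed to compound for 48 hours at five concentrations. Abbreviation: GI50, concentration required for 50% inhibition of growth. At the TGI there is no net growth.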 Where only a bound is given, the exact number is not on record here.

Take `CC1(C)CC(=O)C2=C(C1)OC(N)=C(c1nc(-c3ccccc3)cs1)C2c1ccc(Br)cc1` (stereo unspecified): the GI50 was 67.4 µg/mL in assay [1]; 42.3 µg/mL in [2]; 106 µg/mL in [3]; 20.9 µg/mL in [4]; 50.9 µg/mL in assay [5]; 51.8 µg/mL in assay [6]. Moreover, the GI50 in assay [7] was greater than 150 µg/mL; in assay [8], 76.9 µg/mL; in [9], 71.2 µg/mL; in [10], 97.1 µg/mL. The concentration for total growth inhibition (TGI) in assay [1] was greater than 150 µg/mL; in assay [2], greater than 150 µg/mL; in [3], greater than 150 µg/mL; in [4], 121 µg/mL; in assay [5], greater than 150 µg/mL; in assay [6] it was greater than 150 µg/mL. In addition, the concentration for total growth inhibition (TGI) in assay [7], in assay [8], in assay [9] and in assay [10] was greater than 150 µg/mL throughout.
Take `C[C@]12CC[C@@H]3c4cc(OC(F)F)c(OS(N)(=O)=O)cc4CC[C@H]3[C@@H]1CC[C@@H]2O`: the GI50 is 0.371 µM in assay [1]; 0.401 µM in assay [2]; 0.601 µM in assay [3]; 7.8 µM in assay [4]; 0.537 µM in assay [5]; 0.608 µM in assay [6]. The GI50 in [7] is 0.532 µM; in assay [8], 17 µM; in assay [9], 0.539 µM; in assay [10] it was 3.76 µM. For the same compound, the TGI was 13.9 µM in [1]; 11.3 µM in [2]; 16.7 µM in assay [3]; 83.9 µM in [4]; 47.8 µM in assay [5]; 19.1 µM in [6]. Besides, the total growth inhibition concentration (TGI) is 25.6 µM in [7], greater than 77.2 µM in assay [8], 16.4 µM in [9] and 25.8 µM in [10].
With `O=C1c2sccc2-c2cccc3cccc1c23` (tested in a mixture with another compound), the TGI in assay [1] was 15.2 µM; in assay [2], 82.6 µM; in assay [3] it was 47.2 µM; in [4], 33.9 µM; in assay [5], 31.6 µM; in assay [6], 89.4 µM. Besides, the TGI stood at 35 µM in [7], 22.6 µM in [8], 23 µM in assay [9] and 38.9 µM in assay [10].
As to `CSc1nc2sc3c(c2c(=O)n1-c1ccc(C(C)C)cc1)CCC(=O)C3`, the GI50 in assay [1] is 2.97 µM; in assay [2], 2.27 µM; in assay [3], 2.36 µM; in assay [4], 2.34 µM; in assay [5] it was 1.6 µM; in assay [6], 2.45 µM. For the same compound, the GI50 in [7] was 2.15 µM; in assay [8], 2.58 µM; in [9], 1.7 µM; in assay [10], 3.21 µM. Besides, the total growth inhibition concentration (TGI) came out at 6.7 µM in assay [1]; 5.1 µM in [2]; 5.13 µM in assay [3]; 5.86 µM in [4]; 3.21 µM in assay [5]; 6.02 µM in assay [6]. For the same compound, the TGI in [7] is 4.56 µM; in assay [8] it was 6.53 µM; in assay [9], 3.07 µM; in [10], 9.81 µM.
Take `CCCCCO/N=C\c1c2c(O)c3c(O)c(C)c4c(c3c1O)C(=O)C(C)(O/C=C\C(OC)C(C)C(OC(C)=O)C(C)C(O)C(C)C(O)C(C)/C=C\C=C(\C)C(=O)N2)O4` (stereo unspecified): the GI50 in assay [2] is 1.51 µM; in assay [3], 1.79 µM; in [4] it was 2.28 µM; in assay [5], 1.65 µM; in [6], 1.63 µM; in assay [7], 1.67 µM. Also, the GI50 is 1.84 µM in assay [9] and 2.3 µM in assay [10]. Moreover, the concentration for total growth inhibition (TGI) in assay [2] is 2.83 µM; in assay [3] it was 3.68 µM; in assay [4], 6.1 µM; in assay [5], 4.5 µM; in [6], 3.35 µM; in [7], 3.19 µM. Moreover, the figures for the concentration for total growth inhibition (TGI) in assay [9] and in assay [10] were 3.54 µM and 6.19 µM, respectively.
In the case of `O=C1Nc2ccccc2N=CC1NC(=O)C(c1ccccc1)c1ccccc1` (stereo unspecified), the TGI in [1], in assay [2], in assay [4], in assay [6], in [7] and in [8] was greater than 100 µM each time. The TGI in assay [9] and in assay [10] was greater than 100 µM throughout.
`COC(=O)[C@@]1(C(C)CC(=O)O)CCCCC1=O` (stereo partly specified): the total growth inhibition concentration (TGI) in assay [1], in [2], in assay [4], in [6], in [7] and in assay [8] was greater than 100 µM in each case. The TGI in assay [9] and in assay [10] was greater than 100 µM throughout.
For the compound `C[CH2][Sn]([CH2]C)([O]C(=O)c1ccccc1OC)[O][Sn]([CH2]C)([CH2]C)[O]C(=O)c1ccccc1OC`, the GI50 in assay [1], in assay [2], in assay [4], in assay [6], in [7] and in assay [8] was greater than 100 µM in each case. The GI50 in [9] and in assay [10] was greater than 100 µM in each case. Also, the TGI in assay [1], in [2], in assay [4], in assay [6], in [7] and in assay [8] was greater than 100 µM in each case. Moreover, the TGI in assay [9] and in assay [10] was greater than 100 µM throughout.
For the compound `CCCCC1(C)C=C/C(=C2/C(=O)O/C(=C\C(=O)O)C2=O)O1` (stereo unspecified), the TGI in assay [1], in assay [2], in assay [4], in assay [6], in [7] and in assay [8] was greater than 100 µM throughout. The concentration for total growth inhibition (TGI) in [9] and in assay [10] was greater than 100 µM throughout.
In the case of `O=c1[nH]cc(F)c(=O)n1C1OC(CO)C(O)C1O` (stereo unspecified), the total growth inhibition concentration (TGI) in [1], in assay [2], in assay [4], in assay [6], in [7] and in assay [8] was greater than 100 µM throughout. The total growth inhibition concentration (TGI) in assay [9] and in assay [10] was greater than 100 µM each time.
`COc1ccc(CCC2c3cc(OC)c(OC)cc3CCN2C)cc1OC` (stereo unspecified): the TGI in assay [1], in [2], in [4], in assay [6], in assay [7] and in assay [8] was greater than 100 µM throughout. In addition, the TGI in [9] and in assay [10] was greater than 100 µM throughout.
As to `N#CCN1CCn2c1nsc2=S`, the GI50 in assay [1], in assay [2], in assay [4], in assay [5], in assay [6] and in assay [7] was greater than 100 µM throughout. Also, the GI50 in [8], in assay [9] and in assay [10] was greater than 100 µM in each case. Further, the concentration for total growth inhibition (TGI) in assay [1], in assay [2], in [4], in assay [5], in assay [6] and in [7] was greater than 100 µM each time. For the same compound, the TGI in assay [8], in assay [9] and in assay [10] was greater than 100 µM in each case.
Take `CC1(C)CC(=O)C(/C(=N/NC(=S)NN)C(=O)Nc2nc3ccc([N+](=O)[O-])cc3s2)C(=O)C1`: the total growth inhibition concentration (TGI) in [1], in assay [2], in assay [4], in assay [6], in [7] and in assay [8] was greater than 100 µM in each case. Also, the TGI in assay [9] and in assay [10] was greater than 100 µM each time.
With `O=S(=O)(/C=C/C(=C/c1ccccc1)S(=O)(=O)c1ccccc1)c1ccccc1`, the TGI in assay [1] came out at 3.28 µM; in [2], 3.45 µM; in assay [4], 3.07 µM; in assay [6] it was 3.43 µM; in assay [7], 3.18 µM; in assay [8], 3.24 µM. The total growth inhibition concentration (TGI) worked out at 3.27 µM in [9] and 2.89 µM in assay [10].
Consider `Cc1cc(C)nc(NS(=O)(=O)c2ccc(Nc3c4ccccc4nc4c(C(=O)Nc5ccc(S(=O)(=O)N=C(N)N)cc5)cccc34)cc2)n1`, for which the concentration for total growth inhibition (TGI) in assay [1], in assay [2], in assay [4], in assay [6], in [7] and in [8] was greater than 100 µM each time. For the same compound, the total growth inhibition concentration (TGI) in assay [9] and in assay [10] was greater than 100 µM throughout.
Consider `COc1ccc(NC(=O)C2CCC(CNS(=O)(=O)c3ccccc3)CC2)cc1OC` (stereo unspecified), for which the GI50 is greater than 100 µM in [2]; greater than 100 µM in assay [3]; greater than 100 µM in assay [4]; greater than 100 µM in assay [5]; 2.69 µM in assay [6]; greater than 100 µM in assay [8]. Also, the values for the GI50 in [9] and in [10] were 54 µM and greater than 100 µM, respectively. Further, the TGI in assay [2] is greater than 100 µM; in assay [3] it was greater than 100 µM; in [4], greater than 100 µM; in assay [5] it was greater than 100 µM; in [6], 69.5 µM; in assay [8] it was greater than 100 µM. For the same compound, the concentration for total growth inhibition (TGI) in [9] and in assay [10] was greater than 100 µM in each case.
Consider `COc1cc2c(cc1OC)-c1ncc3c(OC)c(OC)c(OC)cc3c1C2`, for which the GI50 in [2] was 15.3 µM; in [3] it was 13.4 µM; in assay [4], 96.5 µM; in assay [5], greater than 100 µM; in assay [7], 23 µM; in assay [8] it was 18.9 µM. The GI50 in assay [9] was 15.8 µM. For the same compound, the TGI in [2] was 61.3 µM; in assay [3], 45 µM; in assay [4] it was greater than 100 µM; in assay [5] it was greater than 100 µM; in [7], 50 µM; in [8] it was 50.4 µM. Further, the TGI in assay [9] was 33 µM.
Regarding `O=C(Nc1cccc(-n2cc(-c3ccncc3)c(-c3cc(O)cc(Cl)c3)n2)c1)c1cc(C(F)(F)F)cc(C(F)(F)F)c1`, the GI50 in [1] was 2.5 µM; in assay [2] it was 3.04 µM; in assay [3] it was 4.55 µM; in assay [4], 8.53 µM; in [5], 2.28 µM; in [6], 4.77 µM. For the same compound, the GI50 in [7] is 7.03 µM; in [9] it was 3.23 µM; in assay [10], 4.23 µM. Moreover, the TGI in assay [1] was 37.7 µM; in assay [2], greater than 100 µM; in assay [3], greater than 100 µM; in [4] it was greater than 100 µM; in assay [5] it was 22.5 µM; in [6], greater than 100 µM. Also, the concentration for total growth inhibition (TGI) is greater than 100 µM in assay [7], 24.4 µM in assay [9] and 51.2 µM in [10].
Regarding `CC(C)=CC(=O)N(C)C1C2CN3CCC(O2)C13` (stereo unspecified), the TGI in assay [1], in [2], in assay [4], in [6], in assay [7] and in [8] was greater than 100 µM throughout. Besides, the concentration for total growth inhibition (TGI) in assay [9] and in assay [10] was greater than 100 µM each time.
Regarding `O=C(c1nc2ccccc2[nH]c1=O)C(O)c1ccccc1` (stereo unspecified), the TGI in assay [1], in [2], in assay [4], in assay [6], in [7] and in assay [8] was greater than 100 µM each time. The total growth inhibition concentration (TGI) in assay [9] and in [10] was greater than 100 µM each time.
Regarding `N#CC(c1ccccn1)c1nc2ccccc2[nH]1` (stereo unspecified), the TGI in assay [1], in assay [2], in [4], in assay [6], in assay [7] and in [8] was greater than 100 µM in each case. For the same compound, the TGI in assay [9] and in [10] was greater than 100 µM each time.

The term GI50 denotes the concentration that inhibits growth by half. By TGI is commonly meant the concentration giving total growth inhibition. Low values mean more potent growth arrest, high ones less potent growth arrest.

For the origin of these results see PubChem BioAssay (NCI).
